Results reported in paper PMC12203311, “Design, synthesis, in silico and in vitro evaluation of pyrrole–indole hybrids as dual tubulin and aromatase inhibitors with potent anticancer activities” (RSC Advances, 2025).
Where two headings read alike, the source gives them in different places.

Assays:
[1] = test system: SK-OV-3; assay: NCI60 five-dose screen; assay type: cell-based; settings: Homo sapiens, SK-OV-3, ovarian cancer
[2] = test system: 786-0; assay: NCI60 five-dose screen; assay type: cell-based; settings: Homo sapiens, 786-0, renal cancer
[3] = test system: NCI-H226; assay: NCI60 five-dose screen; assay type: cell-based; settings: Homo sapiens, NCI-H226, NSC lung cancer
[4] = test system: UACC-62; assay: NCI60 five-dose screen; assay type: cell-based; settings: Homo sapiens, UACC-62, melanoma
[5] = test system: HS 578T; assay: NCI60 five-dose screen; assay type: cell-based; settings: Homo sapiens, breast cancer
[6] = test system: A549/ATCC; assay: NCI60 five-dose screen; assay type: cell-based; settings: Homo sapiens, NSC lung cancer
[7] = molecular target: T1, Human CYP19 (aromatase) (Homo sapiens, UniProt P11511); assay: Aromatase inhibition assay (DBF fluorometric substrate); assay type: biochemical; settings: active defined as IC50 < 12.5 µM
T1 construct: purchased GENTEST, Woburn, MA 456260; host or cells: baculovirus/insect cells
T1 sequence (P11511 1-503): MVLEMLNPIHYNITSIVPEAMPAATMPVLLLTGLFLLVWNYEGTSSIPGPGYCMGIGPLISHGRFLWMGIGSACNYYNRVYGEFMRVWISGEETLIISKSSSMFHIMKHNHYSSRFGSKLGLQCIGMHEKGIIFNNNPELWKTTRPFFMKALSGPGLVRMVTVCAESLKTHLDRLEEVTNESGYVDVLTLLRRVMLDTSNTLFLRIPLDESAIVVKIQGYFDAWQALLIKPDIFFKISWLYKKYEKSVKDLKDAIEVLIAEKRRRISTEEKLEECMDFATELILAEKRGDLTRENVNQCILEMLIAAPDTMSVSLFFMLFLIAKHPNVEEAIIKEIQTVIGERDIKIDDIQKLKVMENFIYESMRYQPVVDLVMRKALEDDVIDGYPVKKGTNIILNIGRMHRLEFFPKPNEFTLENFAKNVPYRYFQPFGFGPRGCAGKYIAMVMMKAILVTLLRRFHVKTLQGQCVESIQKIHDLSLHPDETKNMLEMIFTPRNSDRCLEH
Outline: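 Insect-cell-expressed human CYP19 Supersomes with oxidoreductase turned over DBF for 30 min at 37 °C after a 10 min 37 °C pre-incubation with cofactor. NaOH quench; product measured by fluorescence, excitation 490 nm, emission 530 nm.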

[8] = test system: SNB-19; assay: NCI60 five-dose screen; assay type: cell-based; settings: Homo sapiens, SNB-19, CNS cancer
[9] = test system: MALME-3M; assay: NCI60 five-dose screen; assay type: cell-based; settings: Homo sapiens, melanoma
[10] = test system: DU-145; assay: NCI60 five-dose screen; assay type: cell-based; settings: Homo sapiens, DU-145, prostate cancer
[11] = test system: OVCAR-5; assay: NCI60 five-dose screen; assay type: cell-based; settings: Homo sapiens, OVCAR-5, ovarian cancer
[12] = test system: CAKI-1; assay: NCI60 five-dose screen; assay type: cell-based; settings: Homo sapiens, CAKI-1, renal cancer
[13] = test system: MDA-MB-435; assay: NCI60 five-dose screen; assay type: cell-based, human; settings: for CC50: read-out: LC50 (the source's name)
[14] = test system: OVCAR-3; assay: NCI60 five-dose screen; assay type: cell-based; settings: Homo sapiens, OVCAR-3, ovarian cancer
[15] = test system: MDA-MB-468; assay: NCI60 five-dose screen; assay type: cell-based; settings: Homo sapiens, MDA-MB-468, breast cancer
[16] = test system: SK-MEL-5; assay: NCI60 five-dose screen; assay type: cell-based, human; settings: Homo sapiens
[17] = test system: BT-549; assay: NCI60 five-dose screen; assay type: cell-based; settings: Homo sapiens, BT-549, breast cancer
[18] = test system: NCI-H23; assay: NCI60 five-dose screen; assay type: cell-based; settings: Homo sapiens, NCI-H23, NSC lung cancer
[19] = test system: COLO 205; assay: NCI60 five-dose screen; assay type: cell-based, human; settings: Homo sapiens
[20] = test system: HCC-2998; assay: NCI60 five-dose screen; assay type: cell-based; settings: Homo sapiens, HCC-2998, colon cancer
[21] = test system: SF-268; assay: NCI60 five-dose screen; assay type: cell-based; settings: Homo sapiens, SF-268, CNS cancer
[22] = test system: TK-10; assay: NCI60 five-dose screen; assay type: cell-based; settings: Homo sapiens, TK-10, renal cancer
[23] = test system: LOX IMVI; assay: NCI60 five-dose screen; assay type: cell-based; settings: Homo sapiens, melanoma
[24] = test system: HL-60 (TB); assay: NCI60 five-dose screen; assay type: cell-based; settings: Homo sapiens, leukemia
[25] = test system: SNB-75; assay: NCI60 five-dose screen; assay type: cell-based; settings: Homo sapiens, SNB-75, CNS cancer
[26] = read-out: LC50 (the source's name)

With CCOC(=O)c1cc(/C=N/NC(=O)c2[nH]c3ccc(Br)cc3c2-c2ccccc2)c[nH]1 [Derivative 3v, Ethyl (E)-4-((2-(5-bromo-3-phenyl-1H-indole-2-carbonyl)hydrazono)methyl)-1H-pyrrole-2-carboxylate] the GI50 [1] was 1.31 µM, the CC50 [1, 26] was 80.3 µM and the GI50 [2] was 6.01 µM. It also gave a CC50 [2, 26] of 53.3 µM, a GI50 [3] of 4.21 µM and a CC50 [3, 26] of 46.2 µM. The GI50 [4] was 3.18 µM, the CC50 [4, 26] was 40.7 µM and the GI50 [5] was 3.11 µM. For the same compound, the CC50 [5, 26] was greater than 100 µM, the GI50 [6] was 4.37 µM and the CC50 [6, 26] was 44.2 µM. It also gave an IC50 [7] of 2.5 ± 0.6 µM, a GI50 [8] of 4.08 µM and a CC50 [8, 26] of 43.4 µM. For the same compound, the GI50 [9] was 4.32 µM, the CC50 [9, 26] was 52.8 µM and the GI50 [10] was 3.36 µM. The CC50 [10, 26] was 33.4 µM, the GI50 [11] was 3.49 µM and the CC50 [11, 26] was 37.4 µM. The GI50 [12] was 3.2 µM, the CC50 [12, 26] was 40.2 µM and the CC50 ([13]; Homo sapiens, MDA-MB-435, MDA-MB-435, melanoma) was 9.35 µM. The GI50 ([13]; Homo sapiens, MDA-MB-435, melanoma) was 1.54 µM, the CC50 ([13]; MDA-MB-435, melanoma) was 9.53 µM and the GI50 [14] was 3.23 µM. For the same compound, the CC50 [14, 26] was 33.4 µM, the GI50 [15] was 2.6 µM and the CC50 [15, 26] was 34 µM. It also gave a CC50 ([16]; SK-MEL-5, SK-MEL-5, melanoma, read-out: LC50 (the source's name)) of 17.9 µM, a GI50 ([16]; SK-MEL-5, melanoma) of 2.01 µM and a GI50 [17] of 13.4 µM. It also gave a CC50 [17, 26] of 60.2 µM, a GI50 [18] of 3.42 µM and a CC50 [18, 26] of 40.4 µM. For the same compound, the CC50 ([19]; COLO 205, COLO 205, colon cancer, read-out: LC50 (the source's name)) was 34.8 µM, the GI50 ([19]; COLO 205, colon cancer) was 3.51 µM and the GI50 [20] was 4.17 µM. It also gave a CC50 [20, 26] of 42.1 µM, a GI50 [21] of 6.04 µM and a CC50 [21, 26] greater than 100 µM. For the same compound, the GI50 [22] was 12.5 µM, the CC50 [22, 26] was 80.7 µM and the GI50 [23] was 4.31 µM. For the same compound, the CC50 [23, 26] was 41.1 µM, the GI50 [24] was 4.68 µM and the CC50 [24, 26] was greater than 100 µM. For the same compound, the GI50 [25] was 1.95 µM and the CC50 [25, 26] was 90.6 µM.
